The results in this text go back to patent publication US20030077740A1, “Presenilin/Crk binding polypeptides (PCBP) and methods of use thereof” (priority 2001, published 2003).

Residues, ends and D or L forms follow the SMILES beside them. *: point of attachment. Cbz = O=C(OCc1ccccc1)*

In one experiment the test system is APP695/PBP cells. In words: protease inhibitors on APP secretion and intracellular accumulation. The class given is cell-based, rat. Here is the method: Cells and transfection: Neuronal cell line B103 (Schubert et al. (1974) Nature, 249, 224-227) was grown in Dulbecco's modified Eagle's medium (DMEM) supplemented with 10% heat-inactivated fetal bovine serum (FBS). B103 cells were transfected with APP695 using G418 selection (Schubert et al. (1989) Neuron, 3: 689-694) and with various plasmids by Lepfectamin2000 (GIBCO; NJ, USA) using puromycin selection for PBP or hygromycin for PS1, respectively. The stably transfected cells were subsequently cloned and screened for protein expression by western blot analysis.
Western blotting, metabolic labeling and immunoprecipitation: For western blotting, cells were washed twice with ice-cold PBS and lysed in lysis buffer (1% Triton, 50 mM Hepes pH 7.5, 50 mM NaCl, 5 mM EDTA, 1 mM Na3VO4, 50 mM NaF, 10 mM Na4P2O7, plus a mixture of protease inhibitors (Complete Mini; Roche, Ind., USA). Protein concentrations were determined by Coomassie Plus (Pierce; IL, USA). The same amount of protein from each sample was separated on Novex pre-cast polyacrylamide gels (Invitrogen; CA, USA), and transferred to Immobulin membranes (Millipore; MA, USA). The membranes were blocked with 5% non-fat milk in Tris-buffered saline for 1 hour at room temperature. Following overnight incubation at 4° C. with primary antibodies, the antigens are detected with horseradish peroxidase-conjugated secondary antibodies (Bio-Rad; CA, USA; 1:20,000), an ECL kit (Amersham; NJ, USA), and exposed to films. For pulse-chase experiments, cells were grown to 80% confluency and incubated in methionine-free DMEM for 90 min. Cells were labeled with [^35]S-methionine (400 μCi/ml in methionine-free DMEM plus 5% dialyzed FBS) for 10 min at 37° C., and the medium was replaced with serum-free DMEM medium plus Ni-supplement (Sigma Inc.; MI, USA). The media were collected and cells were lysed after different time periods. Protein concentrations were determined and the same amounts of proteins were immunoprecipitated with antibodies at 4° C. overnight 25 μl of anti-mouse IgG agarose (Roche) was then added to each sample and incubated at 4° C. for 2 hours on a rocker platform. The immunoprecipitates were collected by centrifugation and washed 4 times with the washing buffer (0.1% Triton, 20 mM Hepes, 150 mM NaCl, 10% glycerol). The agarose beads were resuspended in 30 μl SDS-PAGE sample buffer boiled for 3 min to release the proteins. After 2 min of centrifugation, the supernatants were separated on 8% Tri-glycine gels. The gels were dried and subjected to autoradiography and quantitated by NIH image.
To independently verify the data on APP degradation, the effect of two protease inhibitors, leupeptin and MG132, on the secretion and the intracellular accumulation of APP was studied. Leupeptin is thought to inhibit lysosomal proteases, whereas MG132 is thought to inhibit ER membrane protein degradation through the ubiquitin-proteasome pathway (Soriano et al. (1999) J. Biol. Chem., 274: 32295-32300).

For the next experiment, the system named is B103 (APP695) cells. As to the kind of experiment: APP secretion by transfected B103 (APP695) cells, Western blotting. The settings on record: overexpression of the protein. The class given is cell-based, rat. Background: Immunoblotting shows a protein as a band on a membrane.
Another experiment addresses T1, PS1 (Homo sapiens, UniProt P49768).
T1 construct: the large hydrophilic loop region of PS1 (amino acids 1-81, 429-468, 263-407, respectively) were inserted into the pGBT9 vector; expressed in transfected cells; host or cells: yeast Y190
As to the kind of experiment: yeast two-hybrid interaction with PS1. It is filed as binding. The settings on record: yeast two-hybrid assay.

Experiment [1] concerns the target T2, large hydrophilic loop of PS1 (Homo sapiens, UniProt P49768).
T2 construct: and a large hydrophilic loop (amino acids 263-407); expressed in transfected cells; host or cells: 293T human kidney cells, pCIS2 expression vector
In words: co-immunoprecipitation in 293T cells, PS1 loop. It is filed as binding. Conditions: immunoprecipitation with anti-TAG, 48 hrs after transfection, PS1-FLAG loop. Here is the method: To confirm the yeast two-hybrid data, the interaction between PBP and PSs was assayed in mammalian cells by immunoprecipitation. Human kidney 293-T cells, and monkey kidney COS-7 cells were cultured in Dulbecco's modified Eagle's medium supplemented with 10% fetal calf serum at 37° C. in a 10% CO2 atmosphere. A nine-amino acid TAG epitope ([…]) (SEQ ID NO:6) was incorporated in-frame at the 3′ end of the PBP cDNA (PBP-TAG), and an eight amino acid FLAG epitope ([…]) (SEQ ID NO:7) was attached in frame at the 5′ end of the large hydrophilic loop of PS1 cDNA and at the 3′ end of full length PS1 cDNA as described previously (Kimura, H., Proc. Natl. Acad. Sci. (USA), 90:2165-2169 (1993)). The resulting fragments were inserted into the pCIS2 expression vector (Genentech, San Francisco, Calif.) for transient or constitutive expression. […]
For immunoprecipitation of the large hydrophilic loop of PSs or Crk with PBP, cells were lysed in RIPA buffer (100 mM NaCl, 0.5% NP-40, 0.5% DOC, 0.1% SDS, 50 mM Tris, pH 7.5, 1 mM PMSF and 1 μg/ml aprotinin, 1 μg/l leupeptin) on ice for 30 min. […] The bound antibodies were detected by the ECL-plus chemiluminescence system (Amersham, Arlington Heights, Ill.).

Another experiment relates to PBP. Conditions: PS fragment fused to GAL4-DNA binding domain, PBPα-GAL4 activation domain, β-galactosidase assay.
The mark [2] stands for this setting: 100 μM, either cells, data not shown.

As to `CC(C)C[C@@H](C=O)NC(=O)[C@H](CC(C)C)NC(=O)[C@H](CC(C)C)NC(=O)OCc1ccccc1` [MG132] (Cbz-Leu-Leu-Leu-aldehyde), in the experiment on APP695/PBP cells (10 μM, APP695/PBP cells), the APP secretion entry is “significantly increased” and the “intracellular accumulation of APP” value is listed as “significantly increased”. For the same compound, the “secretion of APP in cells expressing PBP” value with APP695/PBP cells (after 16 hours of treatment) is given as “almost restored to the control level”.
For `CC(=O)N[C@@H](CC(C)C)C(=O)N[C@@H](CC(C)C)C(=O)N[C@H](C=O)CCCNC(=N)N` [leupeptin], in the experiment on APP695/PBP cells (setting [2]), the APP secretion entry is “no effect” and the “intracellular accumulation of APP” value was “no effect”.
Consider “Dock 180: protein 40% homologous to PBP, has a SH3 domain and interacts with Crk [reference compound]”, for which the “secretion of APP” value in the experiment with B103 (APP695) cells is given as “not affected”. For the same compound, the “functional interaction with PS1” value with PS1 is listed as “nor did it functionally interact”. The “interaction with PS1” value in experiment [1] was “did not show any interaction”.
With EERGVKLGLGDFIFYSVLVGKA [consensus], the “interaction with PBP” value in the experiment with PBP is listed as “exhibit an interaction”.
